Entries after “also recorded” stand apart in the source; their conditions may differ.

In data set [1] the target is T1, WT BTK (Homo sapiens, UniProt Q06187). The data set is described as follows: In vitro dialysis assay (irreversibility assay), WT BTK. Format: biochemical. Conditions: for Conclusion (WT BTK): reversible or irreversible inhibition after 24 hr dialysis; for Recovery after 24 h dialysis: 0.003 mM compound pre-incubated with 2 nM BTK for 2 hr, dialyzed 24 hr against buffer with 40 mM ATP, BTK activity vs non-dialyzed samples. The procedure:
(§1) The compound-enzyme complex was dialyzed against the same buffer supplemented with 40 mM ATP for 24 hr. Cumulative dialysis factor >160,000×. After dialysis, the BTK activity was measured in the presence 40 mM ATP and 1 mM substrate peptide and compared to that in non-dialyzed samples. Assay buffer: 100 mM HEPES, pH7.5; 0.1% BSA, 0.01% Triton-X 100; 5 mM MgCl2; 1 mM DTT.

Data set [2] concerns the target T2, C481S BTK (Homo sapiens, UniProt Q06187, C481S). The data set is described as follows: Reversibility of binding to C481S BTK enzyme. The settings on record: cysteine not available for covalent binding. Format: biochemical. As for the experimental part:
as §1

For data set [3], the system named is REC-1 xenograft. In words: REC-1 xenograft model. Format: in vivo, mice. Conditions: for Tumor volume: BIDX28. From the text:
Typically, athymic nude mice (CD-1 nu/nu) or SCID mice are obtained at age 6-8 weeks from vendors and acclimated for a minimum 7-day period. The cancer cells are then implanted into the nude mice. Depending on the specific tumor type, tumors are typically detectable about two weeks following implantation. When tumor sizes reach ˜100-200 mm^3, the animals with appreciable tumor size and shape are randomly assigned into groups of 8 mice each, including one vehicle control group and treatment groups. Dosing varies depending on the purpose and length of each study, which typically proceeds for about 3-4 weeks. Tumor sizes and body weight are typically measured three times per week. In addition to the determination of tumor size changes, the last tumor measurement is used to generate the tumor size change ratio (T/C value), a standard metric developed by the National Cancer Institute for xenograft tumor evaluation. In most cases, % T/C values are calculated using the following formula: % T/C=100×ΔT/ΔC if ΔT>0. When tumor regression occurred (ΔT<0), however, the following formula is used: % T/T0=100×ΔT/T0. Values of <42% are considered significant.

Data set [4] has as its target T1, WT BTK. In words: Caliper-based kinase assay, WT BTK. Format: biochemical. Conditions: 0.5 nM enzyme, 16 μM ATP, 3 h at room temperature; read-out: WT BTK IC50 (nM) (irreversible inhibition). As for the experimental part: (§2) The reaction was then terminated with EDTA, final concentration 20 mM and the phosphorylated reaction product was quantified on a Caliper Desktop Profiler (Caliper LabChip 3000).

The target of data set [5] is T2, C481S BTK. In words: Caliper-based kinase assay, C481S BTK. Type of data set: biochemical. The settings on record: 0.5 nM enzyme, 16 μM ATP, 3 h at room temperature; read-out: C481S BTK IC50 (nM) (reversible inhibition). The procedure: as §2
For data set [6] the following is noted: formulations containing GDC-0853, Phase I clinical trials; cited from earlier work.
For data set [7] the following is noted: rats, treatment for longer than 7 days; cited from earlier work.

T1 sequence (Q06187 whole entry): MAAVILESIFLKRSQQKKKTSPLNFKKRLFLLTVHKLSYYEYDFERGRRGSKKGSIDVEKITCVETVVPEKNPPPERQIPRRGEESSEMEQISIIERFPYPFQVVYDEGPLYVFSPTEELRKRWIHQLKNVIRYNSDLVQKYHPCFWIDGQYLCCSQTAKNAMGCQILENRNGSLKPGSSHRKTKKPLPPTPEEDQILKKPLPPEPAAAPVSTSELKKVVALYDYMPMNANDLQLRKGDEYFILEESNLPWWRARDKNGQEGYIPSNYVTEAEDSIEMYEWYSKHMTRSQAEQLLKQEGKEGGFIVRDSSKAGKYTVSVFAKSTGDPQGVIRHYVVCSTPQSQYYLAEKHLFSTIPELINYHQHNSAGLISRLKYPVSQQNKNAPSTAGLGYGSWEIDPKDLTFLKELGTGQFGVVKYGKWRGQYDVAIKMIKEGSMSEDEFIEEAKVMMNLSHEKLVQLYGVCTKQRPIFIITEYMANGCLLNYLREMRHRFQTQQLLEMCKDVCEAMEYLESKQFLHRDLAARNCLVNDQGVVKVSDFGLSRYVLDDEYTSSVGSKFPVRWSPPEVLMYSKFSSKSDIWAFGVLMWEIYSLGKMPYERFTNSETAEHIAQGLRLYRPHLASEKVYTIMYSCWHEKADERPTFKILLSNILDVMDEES
T2 sequence (Q06187 whole entry C481S): as the sequence (Q06187 whole entry) above, with C481S counted along it

As to `C=CC(=O)Nc1cc(Nc2nc(-c3ccnc(N4CCn5c(cc6c5CC(C)(C)C6)C4=O)c3CO)cn(C)c2=O)ccc1N1CCN(C)CC1` [Example 2, N-(5-((6-(2-(7,7-dimethyl-1-oxo-1,3,4,6,7,8-hexahydro-2H-cyclopenta[4,5]pyrrolo[1,2-a]pyrazin-2-yl)-3-(hydroxymethyl)pyridin-4-yl)-4-methyl-3-oxo-3,4-dihydropyrazin-2-yl)amino)-2-(4-methylpiperazin-1-yl)phenyl)acrylamide], the “Conclusion (WT BTK)” value in data set [1] is on record as “irreversible inhibitors; also recorded: Irreversible/covalent inhibition”. Also, the “Mode of binding to C481S BTK” value in data set [2] is recorded as “reversibly bind”.

As for `C=CC(=O)Nc1cc(Nc2nc(-c3ccnc(N4CCn5c(cc6c5CC(C)(C)C6)C4=O)c3CO)cn(C)c2=O)ccc1N1CCN(C2CCOCC2)C[C@@H]1C` [Example 22, N-(5-[[6-(2-[4,4-dimethyl-9-oxo-1,10-diazatricyclo[6.4.0.0^[2,6]]dodeca-2(6),7-dien-10-yl]-3-(hydroxymethyl)pyridin-4-yl)-4-methyl-3-oxopyrazin-2-yl]amino]-2-[(2S)-2-methyl-4-(oxan-4-yl)piperazin-1-yl]phenyl)prop-2-enamide], in data set [1], the “Recovery after 24 h dialysis” value is reported as roughly 1%. For the same compound, the “Conclusion (WT BTK)” value in data set [1] is “Irreversible/covalent inhibition”. Further, the Tumor volume in data set [3] (10 mg/kg po, day 26 of the study) came to 450 mm^3; in data set [3] (12.5 mg/kg po, day 28 of the study), 201 mm^3; in data set [3] (25 mg/kg po, day 28 of the study) it was 58 mm^3; in data set [3] (50 mg/kg po, day 28 of the study), 56 mm^3. In addition, the “efficacy compared with Acalabrutinib” value in data set [3] (REC-1 xenograft, 10 mg/kg, day 26 of the study) is recorded as “better efficacy than Acalabrutinib”. Besides, the “reduction of tumor growth” value in data set [3] (REC-1 xenograft, 12.5-50 mg/kg, day 28 of the study) is recorded as “dose-dependent reduction of tumor growth”.

As usually defined, the IC50 is the point on the concentration scale where inhibition reaches its midpoint. As to `C=CC(=O)Nc1cc(Nc2nc(-c3ccnc(N4CCn5c(cc6c5CC(C)(C)C6)C4=O)c3C(F)(F)F)cn(C)c2=O)ccc1N1CCN(C2COC2)C[C@@H]1C` [Example 28, (S)—N-(5-((6-(2-(7,7-dimethyl-1-oxo-1,3,4,6,7,8-hexahydro-2H-cyclopenta[4,5]pyrrolo[1,2-a]pyrazin-2-yl)-3-(trifluoromethyl)pyridin-4-yl)-4-methyl-3-oxo-3,4-dihydropyrazin-2-yl)amino)-2-(2-methyl-4-(oxetan-3-yl)piperazin-1-yl)phenyl)acrylamide], the figures for the 50% inhibitory concentration (IC50) in data set [4] and in data set [5] were greater than 100 nM and greater than 1000 nM, respectively.

With `C=CC(=O)Nc1cc(Nc2nc(-c3ccnc(N4CCc5ncccc5C4=O)c3CO)cn(C)c2=O)ccc1N1CCN(C2COC2)C[C@@H]1C` [Example 31, N-[5-([6-[3-(hydroxymethyl)-2-(5-oxo-7,8-dihydro-1,6-naphthyridin-6-yl)pyridin-4-yl]-4-methyl-3-oxopyrazin-2-yl]amino)-2-[(2S)-2-methyl-4-(oxetan-3-yl)piperazin-1-yl]phenyl]prop-2-enamide], the half-inhibitory concentration (IC50) in data set [4] is greater than 100 nM.

In the case of `C=CC(=O)Nc1cc(Nc2nc(-c3ccnc(N4CCc5ccncc5C4=O)c3CO)cn(C)c2=O)ccc1N1CCN(C2COC2)C[C@@H]1C` [Example 32, N-[5-([6-[3-(hydroxymethyl)-2-(1-oxo-3,4-dihydro-2,7-naphthyridin-2-yl)pyridin-4-yl]-4-methyl-3-oxopyrazin-2-yl]amino)-2-[(2S)-2-methyl-4-(oxetan-3-yl)piperazin-1-yl]phenyl]prop-2-enamide], in data set [4], the IC50 was greater than 100 nM.

As for `C=CC(=O)Nc1cc(Nc2nc(-c3ccnc(N4CCc5cccnc5C4=O)c3CO)cn(C)c2=O)ccc1N1CCN(C2COC2)C[C@@H]1C` [Example 33, N-[5-([6-[3-(hydroxymethyl)-2-(8-oxo-5,6-dihydro-1,7-naphthyridin-7-yl)pyridin-4-yl]-4-methyl-3-oxopyrazin-2-yl]amino)-2-[(2S)-2-methyl-4-(oxetan-3-yl)piperazin-1-yl]phenyl]prop-2-enamide], the IC50 in data set [4] was greater than 100 nM.

As for `C=CC(=O)Nc1cc(Nc2nc(-c3ccnc(N4CCc5c(sc6c5CC(C)(C)C6)C4=O)c3CO)cn(C)c2=O)ccc1N1CCN(C2COC2)C[C@@H]1C` [Example 34, N-(5-[[6-(2-[4,4-dimethyl-9-oxo-7-thia-10-azatricyclo[6.4.0.0^[2,6]]dodeca-1(8),2(6)-dien-10-yl]-3-(hydroxymethyl)pyridin-4-yl)-4-methyl-3-oxopyrazin-2-yl]amino]-2-[(2S)-2-methyl-4-(oxetan-3-yl)piperazin-1-yl]phenyl)prop-2-enamide], the “Recovery after 24 h dialysis” value in data set [1] was roughly 1%. Further, in data set [1], the “Conclusion (WT BTK)” value is listed as “Irreversible/covalent inhibition”. The half-maximal inhibitory concentration (IC50) in data set [4] stood at 0.073 nM; in data set [5], 0.46 nM.

For `C[C@H]1CN(C2COC2)CCN1c1ccc(Nc2cc(-c3ccnc(N4CCn5c(cc6c5CC(C)(C)C6)C4=O)c3CO)cn(C)c2=O)nc1` [GDC-0853, reference compound], the tolerability entry in data set [6] is recorded as “well-tolerated”. Moreover, the “Conclusion (WT BTK)” value in data set [1] is listed as “reversible WT BTK inhibitor”. The pancreatic toxicity entry in data set [7] is listed as “leads to pancreatic toxicity”.
